Laboratory results: patent publication US12501899B2, “Mite infestation treatment” (priority 2019, dated 2025)
Structures can show the parent of a compound that is named as a salt. Where two headings read alike, the source gives them in different places.

Assays:
Rhipicephalus sanguineus = test: Topical acaricidal test on brown dog ticks; type: in vivo; conditions: 168 h, 0.5 μl per tick, after 7 days of treatment; for mortality at 1 ppm: 1 ppm topical; for mortality at 10 ppm: 10 ppm topical; for mortality at 100 ppm: 100 ppm topical; for mortality at 1000 ppm: 1000 ppm topical
Protocol: Brown dog ticks, Rhipicephalus sanguineus, of 2nd stage, from a single cohort were used.
Three (3) compounds were tested, as well as a reference compound (Amitraze). For each compound tested and Amitraz, four doses (1000, 100, 10 and 1 ppm) were applied to the ticks topically. A negative control (acetone) and an untreated group were included for comparison. The experiments were carried out in triplicate.
Ten ticks were placed in a clear plastic container, measuring approximately 120 mm in diameter and 45 mm in height. The ticks were then anesthetized by direct exposure (for 10 seconds) to carbon dioxide. The treatments were then applied to the back (scutum) of each tick, using a Hamilton syringe, up to 0.5 μl of treatment per tick (1 application).
Cotton soaked in water was placed in each container to provide humidity throughout the experiment. The container was also vented throughout the experiment with a tube to introduce air into each container. The containers were maintained at a temperature of 23±3° C. Live, shocked and dead tick counts were taken daily after treatment for 7 days.
The averages in percentage of each evaluation category (healthy, knocked down and dead) were calculated, as well as the standard error. An analysis of variance (ANOVA) was performed using Minitab software, 16th edition.

Varroa destructor = test: Efficiency against Varroa mites in beehives outside the brood (gel application); type: in vivo
Source text: (§1) 18 hives of bees were divided into 6 groups of 3 homogeneous hives as regards the strength of the colonies (number of bees) and the Varroa infestation.
The queen of each hive was caged 3 weeks before the application of the tested compounds. The application of the tested compounds was therefore carried out in a situation outside the brood, which allows the forced passage of the Varroa mites from their reproduction phase to their phoresy phase (they are therefore all present on the bees).
(§2) The tested compounds were applied in the form of a gel three weeks after the queen was caged. The activity of the compounds was studied for a period of 9 days.
Following these 9 days of treatment, a control treatment with oxalic acid was carried out (duration of treatment equal to 1 week).
Counts of Varroa mites falling on the floor were carried out at regular time intervals to quantify the number of dead Varroa mites.
The efficiency of the treatment was calculated by taking the sum of all the dead Varroa mites from D0 to D9 (tested compounds) and dividing it by the sum of all the dead Varroa mites from D0 to D16 (tested compounds+control treatment).
(§3) The following compounds were tested: • Dexmedetomidine at 55 mg/hive in hydrochloride form, • Dexmedetomidine at 110 mg/hive in hydrochloride form, • Dexmedetomidine at 220 mg/hive in hydrochloride form, • Detomidine at 38.4 mg/hive in hydrochloride form, • Detomidine at 110 mg/hive in hydrochloride form, • Detomidine at 220 mg/hive in hydrochloride form, Results

bees [1] = test: Mortality of adult bees in treated beehives (dead bee traps); type: in vivo
Protocol: as §1, §2
For this purpose, dead bee traps disposed in front of the hives were used.
as §3

bees (Apis mellifera) = test system: bees (Apis mellifera)
Protocol: The bees were then dispatched in the boxes (10 per box).
The bees were then put to sleep for a few minutes using CO2 (flow of 3 liters for 20 seconds) in order to deposit 1 μL of compound to be tested on their thorax using a pipette. It should be noted that the bees which received romifidine hydrochloride at a concentration of 10 μg/μL received 2 μL of product. The bees were unconscious for the time the compound to be tested was deposited, that is to say around three minutes, then they woke up.
After thoracic deposition of the compound to be tested, the 10 bees from the same box were transferred to a box containing the 10 Varroa mites (cf. “Preparation of Varroa mites” above). Liquid sugar was left in each of the boxes to feed the bees during the observations. The series of boxes was then placed in an oven at […] with a humidity of 50% in order to approximate hive conditions as closely as possible.
The mortality of Varroa mites and bees was then monitored 5 minutes, 2 hours, 4 hours and 24 hours after application of the compound to be tested to the bees. Dead Varroa mites correspond to Varroa mites detached from the bees. Dead bees correspond to bees which no longer move and which are often placed on their thorax.
The following compositions were applied to the thorax of the bees: • Solvent, • Amitraz at 1 μg/μL in acetone, • Clonidine hydrochloride at 100 μg/μL, 10 μg/μL, 1 μg/μL and 0.1 μg/μL in methanol, • Detomidine hydrochloride monohydrate at 1 μg/μL in methanol, • Dexmedetomidine hydrochloride at 100 μg/μL, 10 μg/μL, 1 μg/μL and 0.1 μg/μL in methanol, • Romifidine hydrochloride at 10 μg/μL and at 5 μg/μL in methanol, • Tizanidine hydrochloride at 1 μg/μL in methanol, • Medetomidine hydrochloride at 0.1 μg/μL in ethanol, • Levomedetomidine hydrochloride at 100 μg/μL, 10 μg/μL, 1 μg/μL and 0.1 μg/μL in methanol, • Octopamine at 1 μg/μL in ethanol. Results

bees [2] = conditions: 100 μg/mL syrup ad libitum
Protocol: Bees and Varroa mites were obtained and contacted as detailed in Example 1 (without the treatment step).
The bees on which the Varroa mites are attached (10 bees placed in contact with 10 Varroa mites) were fed with: • A pure syrup (Negative control), or • A syrup comprising dexmedetomidine hydrochloride at 100 μg/mL syrup.
The syrup was provided to the bees ad libitum in 1.5 mL eppendorf tubes.

| Structure (SMILES) | mortality at 1 ppm (Rhipicephalus sanguineus) | mortality at 10 ppm (Rhipicephalus sanguineus) | mortality at 100 ppm (Rhipicephalus sanguineus) | mortality at 1000 ppm (Rhipicephalus sanguineus) | Varroacid effect in the hive (in words) (Varroa destructor; 220 mg/hive, gel, 9 days) | mortality of the bees in the hive (in words) (bees [1]; 220 mg/hive) | total efficiency against Varroa mites (dead Varroa D0 to D9 / dead Varroa D0 to D16) (Varroa destructor; 220 mg/hive, gel, 9 days, outside the brood) | dose dependence of efficiency against Varroa mites (in words) (Varroa destructor; 55, 110, 220 mg/hive) | mortality for bees (bees (Apis mellifera); 0.1 μg/μL, after 24 hours) | mortality / toxicity for the bees (bees (Apis mellifera); 1 μg/μL, after 24 hours) | mortality for bees (bees (Apis mellifera); 10 μg/μL, after 24 hours) | toxicity for bees (bees (Apis mellifera); 100 μg/μL) | % bee mortality (bees [2]; 5 min) | % bee mortality (bees [2]; 1 h) | % bee mortality (bees [2]; 2 h) | % bee mortality (bees [2]; 3 h 30) | % bee mortality (bees [2]; 3 h 45) | % bee mortality (bees [2]; 24 h) | bee mortality in the hive (in words) (bees [1]; 55, 110, 220 mg/hive) | bees killed / bee mortality (bees (Apis mellifera); 1 μg/μL, 1 μL on bee thorax, time not stated (monitored up to 24 hours)) |
| --- | --- | --- | --- | --- | --- | --- | --- | --- | --- | --- | --- | --- | --- | --- | --- | --- | --- | --- | --- | --- |
| Cc1cccc(C(C)c2cnc[nH]2)c1C (racemic) [Medetomidine hydrochloride] | 26.7% | 66.7% | 93.3% | 100% | – | – | – | – | – | – | – | – | – | – | – | – | – | – | – | – |
| Cc1cccc(Cc2cnc[nH]2)c1C [Detomidine hydrochloride, 4-[(2,3-dimethylphenyl)-methyl]-3H-imidazole] | 26.7% | 23.3% | 50% | 100% | allows to have a Varroacid effect | increase in the mortality of the bees | – | – | – | – | – | – | – | – | – | – | – | – | – | – |
| Cc1cccc([C@H](C)c2c[nH]cn2)c1C [Dexmedetomidine hydrochloride, (S)-4-[1-(2,3-dimethylphenyl)-ethyl]-1H-imidazole] | 20% | 93.3% | 100% | 100% | – | – | 94.5% | dose effect | less than 5% | less than 5% | less than 5% | toxic for bees | 0% | 0% | 5% | 5% | 5% | 5% | no increase in bee mortality | – |
| Cc1ccc(/N=C/N(C)/C=N/c2ccc(C)cc2C)c(C)c1 [Amitraz] | 30% | 46.7% | 96.7% | 100% | – | – | – | – | – | – | – | – | – | – | – | – | – | – | – | 0% |
